For data set [1], the system named is murine model of allergen-induced chronic asthma subjected to repeated allergic challenge (Balb/C mice). Conditions: mouse, in vivo. The protocol:
This example reports the results of tests wherein mice having induced chronic asthma and having been treated in accord with the present invention are subsequently further challenged intranasally (“IN”) with OVA. Materials were the same as in Example 1. Balb/C mice were repeatedly immunized with OVA over a six month period as in Example 1. Thereafter, the mice were treated with 50 μg of HKX per dose intranasally for eight doses over a 16 day period, as in example 1. Then, a further regimen administered a 50 μg dose of HK-X 15-30 minutes prior to intranasal OVA challenge. This regimen was repeated for a total of three days. On the day after the last treatment the mice were sacrificed. HK-X was prepared in the same manner as in Example 1. […] The trachea and left lung (upper and lower lobes) were collected and fixed in 10% formalin at 20° C. for 15 hr. After embedding in paraffin, the tissues were cut into 5 μm sections. Eosinophils were stained in the lung tissue with Modified Discombe's Solution. […] Occlusion of the airway diameter by mucus was assessed on a semiquantitative scale ranging from 0 to 5+. For each mouse, individuals blinded to the protocol design assessed 10 airway sections randomly distributed throughout the left lung for mucus occlusion by morphometric analysis. […]

Data set [2] deals with BALB/c mice. Conditions: mouse, in vivo.
In data set [3] the test system is murine model of allergen-induced chronic asthma (OVA immunized BALB/c mice). Conditions: mouse, in vivo.
From the text: The chronic murine model of asthma was used to test the effects of f-Met-Leu-Phe-Phe (HK-X) on persistent asthma. This murine system is a model of chronic asthma where there is enormous infiltration of inflammatory cells in association with outer boundaries of the airway basal lamina. An immunization period of five (5) months during which mice were subjected to an initial immunization procedure during the first month followed by weekly intranasal challenges with OVA established a condition of persistent asthma in the mice. […] Immunized mice were treated with HK-X eight times over a sixteen day period (i.e., every other day). […]
Airway Plug scores—by using a scoring system from + to ++++, the severity of mucus secretion into medium and large-sized airways could be measured according to the previous report (Henderson et al., J. Exp. Medicine, vol. 1-84, pp. 1483-94, Oct. 1996).
Fraction of Epithelial Cells Containing Mucous Granules—was evaluated by randomly counting the number of epithelial cells containing mucus out of 100 epithelial cells in medium to large airways (600 μm to 1,000 μm diameters). A total of 10 fields were counted in different lung lobes and the mean score was tabulated. […]
Numbers of various cell types—eosinophils and neutrophils were quantified by counting the numbers per high power field (40×) in an area of 2,200 u^2 in association with airways. […]
Data set [4] is described as follows: in vivo. The settings on record: mouse.
Method: The HK-X/OVA group of animals received HK-X dosage of 0.4 mg/Kg body weight (50 ug per 20 gm body weight per day) while the saline group received the same dosage of HK-X without OVA. […] Therefore, to maintain the plasma levels during the course of the allergen challenge, these mice received additional HK-X doses intranasally immediately before OVA challenge.

Structures are written as SMILES. Peptide text beside a SMILES is read from it. * marks the point of attachment. For = O=C*

What is called half-life is how long it takes for the measured level to halve. A low value points to fast loss. With `CSCC[C@H](NC=O)C(=O)N[C@@H](CC(C)C)C(=O)N[C@@H](Cc1ccccc1)C(=O)N[C@@H](Cc1ccccc1)C(=O)O` [HK-X, f-Met-Leu-Phe-Phe] (For-MLFF-OH; C-terminus assumed), in data set [1], the “number of eosinophils in the lung tissues” value is listed as 0.75±0.18 cells per 2,200 μm^2; the “pulmonary tissue of control mice administered HK-X in saline” value was “free of inflammatory cells and fibrotic collagen deposits”. In data set [2], the “adverse reactions or signs of sickness” value is reported as “No adverse reactions or signs of sickness were observed”. The “pulmonary tissue of control mice administered HK-X in saline” value in data set [3] was “free of inflammatory cells and fibrotic collagen deposits”. In data set [4], this compound displayed a half-life of less than 30 min.

For the origin of these results see patent publication US20020072499A1, “Treatment with small peptides to effect antifibrotic activity” (Histatek, Inc., priority 1999, published 2002).
